Source: patent publication US6355799B1, “Substituted benzene compounds, process for their preparation, and herbicidal and defoliant compositions containing them” (ISK Americas Incorporated, priority 1997, dated 2002)

How the values were obtained:
Type in all cases: in vivo
[1] = test system: field corn (Zea mays L., var. Dekalb 535, CORN); experiment: Pre-emerge test, crop safety; details: crop damage, pre-emerge, phytotoxicity rating 0-100 at 14 days after application
How it was run: (§1)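 Sandy loam pots; pre-emerge: sown 1 d pre-spray, surface-watered after, then bottom-watered. Post-emerge: sown 8–21 d before, 2–3 leaf stage, + 0.25% v/v NIS, bottom-watered. Acetone, 187 l/ha track spray, 15–1000 g ai/ha. 0–100 injury score, day 14.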

[2] = test system: upland rice (Oryza sp., var. Tebonnet, RICE); experiment: Pre-emerge test, crop safety; details: crop damage, pre-emerge, phytotoxicity rating 0-100 at 14 days after application
How it was run: as §1

[3] = test system: field corn (Zea mays L., var. Dekalb 535, CORN); experiment: Post-emerge test, crop safety; details: post-emerge, crop damage rating 0-100 at 14 days after application
How it was run: (§2)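 Visual ratings on a 0-100 scale (0 no damage, 100 all plants dead) were taken at 14 days after treatment. Rates of 15-1000 g ai/ha in acetone, 187 l/ha, were sprayed onto soil one day after planting (pre-emerge) or onto 2-3 leaf plants with 0.25% v/v surfactant (post-emerge).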

[4] = test system: upland rice (Oryza sp., var. Tebonnet, RICE); experiment: Post-emerge test, crop safety; details: post-emerge, crop damage rating 0-100 at 14 days after application
How it was run: as §2

[5] = test system: ivyleaf morningglory (Ipomoea hederacea, IPOHE); experiment: Post-emerge test, greenhouse herbicide activity screening; details: post-emerge, phytotoxicity rating 0-100 at 14 days after application
How it was run: (§3)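 Each test used a mechanized track sprayer delivering 187 l/ha of acetone solution at 15–1000 g ai/ha. Post-emerge foliage at 2–3 leaves was treated with added 0.25% v/v non-ionic surfactant and bottom-watered only. Injury was assessed on day 14, where 100 means total kill.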

[6] = test system: barnyardgrass (Echinochloa crus-galli, ECHCG); experiment: as above; details: post-emerge, phytotoxicity rating 0-100 at 14 days after application
How it was run: as §3

[7] = test system: redroot pigweed (Amaranthus retroflexus, AMARE); experiment: as above; details: post-emerge, phytotoxicity rating 0-100 at 14 days after application
How it was run: as §3

[8] = test system: lambsquarters (Chenopodium album, CHEAL); experiment: as above; details: post-emerge, phytotoxicity rating 0-100 at 14 days after application
How it was run: as §3

[9] = test system: large crabgrass (Digitaria sanguinalis, DIGSA); experiment: as above; details: post-emerge, phytotoxicity rating 0-100 at 14 days after application
How it was run: as §3

[10] = test system: velvetleaf (Abutilon theophrasti, ABUTH); experiment: as above; details: post-emerge, phytotoxicity rating 0-100 at 14 days after application
How it was run: as §3

[11] = test system: green foxtail (Setaria viridis, SETVI); experiment: as above; details: post-emerge, phytotoxicity rating 0-100 at 14 days after application
How it was run: as §3

[12] = test system: sicklepod (Cassia obtusifolia, CASOB); experiment: as above; details: post-emerge, phytotoxicity rating 0-100 at 14 days after application
How it was run: as §3

[13] = test system: redroot pigweed (Amaranthus retroflexus, AMARE); experiment: Pre-emerge test, greenhouse herbicide activity screening; details: pre-emerge, phytotoxicity rating 0-100 at 14 days after application
How it was run: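 Rating: 0–100 visual injury, 14 DAA. Application: acetone, 187 l/ha, 15–1000 g ai/ha, flat-fan track sprayer with nozzle 40–45 cm above soil or canopy. Post-emerge runs used 0.25% v/v surfactant on 2–3 leaf plants.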

[14] = test system: ivyleaf morningglory (Ipomoea hederacea, IPOHE); experiment: as above; details: pre-emerge, phytotoxicity rating 0-100 at 14 days after application
How it was run: as §2

[15] = test system: barnyardgrass (Echinochloa crus-galli, ECHCG); experiment: as above; details: pre-emerge, phytotoxicity rating 0-100 at 14 days after application
How it was run: as §2

[16] = test system: lambsquarters (Chenopodium album, CHEAL); experiment: as above; details: pre-emerge, phytotoxicity rating 0-100 at 14 days after application
How it was run: as §2

[17] = test system: large crabgrass (Digitaria sanguinalis, DIGSA); experiment: as above; details: pre-emerge, phytotoxicity rating 0-100 at 14 days after application
How it was run: as §2

[18] = test system: velvetleaf (Abutilon theophrasti, ABUTH); experiment: as above; details: pre-emerge, phytotoxicity rating 0-100 at 14 days after application
How it was run: as §2

[19] = test system: green foxtail (Setaria viridis, SETVI); experiment: as above; details: pre-emerge, phytotoxicity rating 0-100 at 14 days after application
How it was run: as §2

[20] = test system: johnsongrass (Sorghum halepense, SORHA); experiment: as above; details: pre-emerge, phytotoxicity rating 0-100 at 14 days after application
How it was run: as §2

[21] = test system: sicklepod (Cassia obtusifolia, CASOB); experiment: as above; details: pre-emerge, phytotoxicity rating 0-100 at 14 days after application
How it was run: as §2

COc1c(Cl)cc(F)c(-n2nnn(CCCF)c2=O)c1NC(=O)c1ccc2ccccc2c1 [Compound 5-26]
Pre-emerge Herbicidal Activity CORN ([1]; rate 63 g ai/ha): 0
Pre-emerge Herbicidal Activity CORN ([1]; rate 250 g ai/ha): 0
Pre-emerge Herbicidal Activity RICE ([2]; rate 63 g ai/ha): 15
Pre-emerge Herbicidal Activity RICE ([2]; rate 250 g ai/ha): 40
Post-emerge Herbicidal Activity CORN ([3]; 63 g ai/ha): 10
Post-emerge Herbicidal Activity CORN ([3]; 250 g ai/ha): 5
Post-emerge Herbicidal Activity RICE ([4]; 63 g ai/ha): 50
Post-emerge Herbicidal Activity RICE ([4]; 250 g ai/ha): 60
Post-emerge Herbicidal Activity IPOHE ([5]; 63 g ai/ha): 90
Post-emerge Herbicidal Activity IPOHE ([5]; 250 g ai/ha): 70
Post-emerge Herbicidal Activity ECHCG ([6]; 63 g ai/ha): 20
Post-emerge Herbicidal Activity ECHCG ([6]; 250 g ai/ha): 60
Post-emerge Herbicidal Activity AMARE ([7]; 63 g ai/ha): 100
Post-emerge Herbicidal Activity AMARE ([7]; 250 g ai/ha): 90
Post-emerge Herbicidal Activity CHEAL ([8]; 63 g ai/ha): 100
Post-emerge Herbicidal Activity CHEAL ([8]; 250 g ai/ha): 100
Post-emerge Herbicidal Activity DIGSA ([9]; 63 g ai/ha): 20
Post-emerge Herbicidal Activity DIGSA ([9]; 250 g ai/ha): 30
Post-emerge Herbicidal Activity ABUTH ([10]; 63 g ai/ha): 100
Post-emerge Herbicidal Activity ABUTH ([10]; 250 g ai/ha): 100
Post-emerge Herbicidal Activity SETVI ([11]; 63 g ai/ha): 40
Post-emerge Herbicidal Activity SETVI ([11]; 250 g ai/ha): 70
Post-emerge Herbicidal Activity CASOB ([12]; 63 g ai/ha): 90
Post-emerge Herbicidal Activity CASOB ([12]; 250 g ai/ha): 100
Pre-emerge Herbicidal Activity AMARE ([13]; rate 63 g ai/ha): 100
Pre-emerge Herbicidal Activity AMARE ([13]; rate 250 g ai/ha): 100
Pre-emerge Herbicidal Activity IPOHE ([14]; rate 63 g ai/ha): 0
Pre-emerge Herbicidal Activity IPOHE ([14]; rate 250 g ai/ha): 40
Pre-emerge Herbicidal Activity ECHCG ([15]; rate 63 g ai/ha): 20
Pre-emerge Herbicidal Activity ECHCG ([15]; rate 250 g ai/ha): 30
Pre-emerge Herbicidal Activity CHEAL ([16]; rate 63 g ai/ha): 100
Pre-emerge Herbicidal Activity CHEAL ([16]; rate 250 g ai/ha): 100
Pre-emerge Herbicidal Activity DIGSA ([17]; rate 63 g ai/ha): 30
Pre-emerge Herbicidal Activity DIGSA ([17]; rate 250 g ai/ha): 80
Pre-emerge Herbicidal Activity ABUTH ([18]; rate 63 g ai/ha): 70
Pre-emerge Herbicidal Activity ABUTH ([18]; rate 250 g ai/ha): 100
Pre-emerge Herbicidal Activity SETVI ([19]; rate 63 g ai/ha): 60
Pre-emerge Herbicidal Activity SETVI ([19]; rate 250 g ai/ha): 90
Pre-emerge Herbicidal Activity SORHA ([20]; rate 63 g ai/ha): 0
Pre-emerge Herbicidal Activity SORHA ([20]; rate 250 g ai/ha): 30
Pre-emerge Herbicidal Activity CASOB ([21]; rate 63 g ai/ha): 10
Pre-emerge Herbicidal Activity CASOB ([21]; rate 250 g ai/ha): 80

COc1c(Cl)cc(F)c(-n2nnn(CCCF)c2=O)c1NC(=O)COCc1ccccc1 [Compound 5-28]
Pre-emerge Herbicidal Activity CORN ([1]; rate 63 g ai/ha): 10
Pre-emerge Herbicidal Activity CORN ([1]; rate 250 g ai/ha): 20
Pre-emerge Herbicidal Activity RICE ([2]; rate 63 g ai/ha): 30
Pre-emerge Herbicidal Activity RICE ([2]; rate 250 g ai/ha): 60
Post-emerge Herbicidal Activity CORN ([3]; 63 g ai/ha): 25
Post-emerge Herbicidal Activity CORN ([3]; 250 g ai/ha): 70
Post-emerge Herbicidal Activity RICE ([4]; 63 g ai/ha): 60
Post-emerge Herbicidal Activity RICE ([4]; 250 g ai/ha): 70
Post-emerge Herbicidal Activity IPOHE ([5]; 63 g ai/ha): 100
Post-emerge Herbicidal Activity IPOHE ([5]; 250 g ai/ha): 100
Post-emerge Herbicidal Activity ECHCG ([6]; 63 g ai/ha): 0
Post-emerge Herbicidal Activity ECHCG ([6]; 250 g ai/ha): 50
Post-emerge Herbicidal Activity AMARE ([7]; 63 g ai/ha): 100
Post-emerge Herbicidal Activity AMARE ([7]; 250 g ai/ha): 100
Post-emerge Herbicidal Activity CHEAL ([8]; 63 g ai/ha): 100
Post-emerge Herbicidal Activity CHEAL ([8]; 250 g ai/ha): 100
Post-emerge Herbicidal Activity DIGSA ([9]; 63 g ai/ha): 10
Post-emerge Herbicidal Activity DIGSA ([9]; 250 g ai/ha): 30
Post-emerge Herbicidal Activity ABUTH ([10]; 63 g ai/ha): 100
Post-emerge Herbicidal Activity ABUTH ([10]; 250 g ai/ha): 100
Post-emerge Herbicidal Activity SETVI ([11]; 63 g ai/ha): 10
Post-emerge Herbicidal Activity SETVI ([11]; 250 g ai/ha): 30
Post-emerge Herbicidal Activity CASOB ([12]; 63 g ai/ha): 90
Post-emerge Herbicidal Activity CASOB ([12]; 250 g ai/ha): 100
Pre-emerge Herbicidal Activity AMARE ([13]; rate 63 g ai/ha): 100
Pre-emerge Herbicidal Activity AMARE ([13]; rate 250 g ai/ha): 100
Pre-emerge Herbicidal Activity IPOHE ([14]; rate 63 g ai/ha): 60
Pre-emerge Herbicidal Activity IPOHE ([14]; rate 250 g ai/ha): 100
Pre-emerge Herbicidal Activity ECHCG ([15]; rate 63 g ai/ha): 30
Pre-emerge Herbicidal Activity ECHCG ([15]; rate 250 g ai/ha): 60
Pre-emerge Herbicidal Activity CHEAL ([16]; rate 63 g ai/ha): 100
Pre-emerge Herbicidal Activity CHEAL ([16]; rate 250 g ai/ha): 100
Pre-emerge Herbicidal Activity DIGSA ([17]; rate 63 g ai/ha): 30
Pre-emerge Herbicidal Activity DIGSA ([17]; rate 250 g ai/ha): 90
Pre-emerge Herbicidal Activity ABUTH ([18]; rate 63 g ai/ha): 100
Pre-emerge Herbicidal Activity ABUTH ([18]; rate 250 g ai/ha): 100
Pre-emerge Herbicidal Activity SETVI ([19]; rate 63 g ai/ha): 50
Pre-emerge Herbicidal Activity SETVI ([19]; rate 250 g ai/ha): 85
Pre-emerge Herbicidal Activity SORHA ([20]; rate 63 g ai/ha): 20
Pre-emerge Herbicidal Activity SORHA ([20]; rate 250 g ai/ha): 30
Pre-emerge Herbicidal Activity CASOB ([21]; rate 63 g ai/ha): 100
Pre-emerge Herbicidal Activity CASOB ([21]; rate 250 g ai/ha): 100
